Test results as given in patent publication US10028973B2, “Using DNA methyltransferase inhibitors to treat calcific aorta valve disease” (Mayo Foundation for Medical Education and Research, priority 2014, dated 2018).

Assays:
mouse aortic valves = experiment: Acute Decitabine treatment of mice with established CAVD: gene expression in aortic valve tissue by quantitative real-time RT-PCR; type: in vivo; details: ldlr−/−/apoB100/100 (LA) mice on Western diet 6 months, 0.5 or 1 mg/kg/day i.p. for 5 days
Protocol: FIG. 5 is a pair of graphs plotting the effects of DNMT inhibition with decitabine (DAC) on expression of the pro-osteogenic signaling genes, Runx2 and osteopontin (SPP1), in mouse aortic valves in vivo. DAC was administered using daily intraperitoneal injections at the doses indicated (mg/kg/day) for 5 days, and gene expression was measured using quantitative real-time RT-PCR and mRNA isolated from mouse aortic valve tissue.
FIG. 6 is a graph plotting the effects of DNMT inhibition with DAC on expression of the anti-osteogenic gene, FABP4 (a PPARγ target). DAC was administered using daily intraperitoneal injections at the doses indicated (mg/kg/day) for 5 days, and gene expression was measured using quantitative real-time RT-PCR and mRNA isolated from mouse aortic valve tissue.
To determine whether acute DNA methyltransferase inhibition promotes anti-calcific gene expression patterns in mice with established calcific aortic valve disease, ldlr^−/−/apoB^100/100 (LA) mice were placed on a Western diet for 6 months (which produces mild to moderate valvular dysfunction), and treated with vehicle or Decitabine (5-aza-2′-deoxycytidine; “DAC”) for 5 days (0.5 or 1 mg/kg/day, i.p.). Changes in cardiac and aortic valve function at 3 and 6 months are evaluated. […] The second group is used for semi-quantitative histological/immunohistochemical evaluation of aortic valve (n=10). The third group is used for genome-wide evaluation of gene expression using microarrays (n=20), and the fourth group is used for high-resolution μCT scanning for quantitation of calcium burden in aortic valve and root (n=15).
Quantitative Real-Time RT-PCR: Aortic valve cusps are dissected, and tissue is processed and stored using commercially available lysis buffer with β-mercaptoethanol (Miller et al., Am J Physiol Heart Circ Physiol 298:H1600-1607, 2010). Quantitative real-time RT-PCR studies confirming array-detected changes in gene expression are performed on a StepOne Plus instrument (Applied Biosystems).

[1] = system: pig aortic valve interstitial cells; experiment: Calcium deposition in aortic valve interstitial cells in vitro; type: cell-based; details: FIG. 7
Text: FIG. 7 is a graph plotting the effects of DNMT inhibition with DAC calcium deposition in pig aortic valve interstitial cells in vitro.

[2] = system: hypercholesterolemic mice; experiment: Chronic low-dose Decitabine treatment: progression of aortic valve calcification and stenosis (cusp separation distance, echocardiography); type: in vivo, mouse; details: FIG. 8
Protocol: FIG. 8 is a graph plotting cusp separation distance in control mice and in mice treated with DAC (0.1 mg/kg i.p., 2 days/week for 3 months). […] Echocardiographic evaluation of aortic valve function: Echocardiographic evaluation of aortic valve function is conducted as described elsewhere (Miller et al. 2009, supra; Hinton et al., Am J Physiol Heart Circ Physiol 294:[…]-2488, 2008; Barrick et al., Am J Physiol Heart Circ Physiol 297:[…]-75, 2009; and Miller et al., Circ Res 108:1392-1412, 2011). In brief, a Vevo 2200 small animal ultrasound unit is used to evaluate 1) cusp separation distance from M-mode images, 2) peak transvalvular blood velocity, and 3) color Doppler screening for evidence of aortic valve regurgitation. […] Short- and long-axis views of the left ventricle also are acquired to evaluate ventricular function (Berry et al., J Cardiovasc Magn Reson 11:27, 2009).

Nc1ncn([C@H]2C[C@H](O)[C@@H](CO)O2)c(=O)n1 [Decitabine, 5-Aza-2′-deoxycytidine]
Sp7 expression (mouse aortic valves): dose-dependent reductions | Runx2 expression (mouse aortic valves; FIG. 5): dose-dependent reductions | PPARγ target gene expression (e.g., FABP4) (mouse aortic valves; FIG. 6): increased PPARγ target gene expression | calcification in aortic valve interstitial cells [1]: reduced calcification | progression of aortic valve stenosis (cusp separation distance) ([2]; 0.1 mg/kg i.p., 2 days/week for 3 months, larger cusp separation distance = improved valve function): slowed progression of aortic valve stenosis | progression of aortic valve calcification and stenosis ([2]; low-dose, hypercholesterolemic mice in vivo): successfully slowed progression
